Results published in article PMC8034185, “The rumen eukaryotome is a source of novel antimicrobial peptides with therapeutic potential” (BMC Microbiology, 2021).
Converted amounts (≈) assume the structure as drawn. Bridge positions count the residues as written; N and C are the ends. Square brackets hold non-standard residues; d marks the D form. Peptide text beside a SMILES is read from it. * marks the point of attachment. X1 = CC[C@H](C)CCCCC(=O)*; Dab = NCC[C@H](N)C(=O)O

Tests used:
Experiment in all cases: microbe, parasite or virus in culture
Sal. Tyhimurium (SL1344) = assay type: cell-based, Salmonella enterica serovar Typhimurium; settings: modified broth microdilution, cation-adjusted Mueller Hinton broth, inoculum 5 × 10^5 CFU/mL, 18 h, quadruplicate, highest concentration tested 512 μg/mL
Protocol: (§1) MICs against a range of clinically important Gram-positive and Gram-negative bacteria strains including methicillin-sensitive Staphylococcus aureus (MSSA) RN4220 epidemic methicillin-resistant S. aureus-15 (EMRSA-15), methicillin-resistant S. aureus USA300 (MRSA USA300), Bacillus cereus, Enterococcus faecalis JH2–2, Escherichia coli K12, Salmonella enterica serovar Typhimurium SL1344, P. aeruginosa PAO1, and hospital isolates of Acinetobacter baummannii were determined in quadruplicate by a modified microdilution broth method [64] with a final bacterial inoculum concentration of 5 × 10^5 CFU/mL utilised as the test organisms. Cation-adjusted Mueller Hinton (MH) broth was innoclated overnight with a single colony of the tested microorganisms, subsequently grown for 16–24 h with shaking at 225 rpm, and further diluted in the same broth to a final concentration of 5 × 10^5 CFU/mL. The bacterial suspension was added to sterile U-bottomed 96-well plates, and the peptides and control antibiotics to be tested were dissolved in sterile distilled water and serially diluted in the wells. The MICs were recorded as the lowest peptide concentration that inhibited growth after incubation for 18 h [65].

A. baumannii DSMZ 30007 = assay type: cell-based, Acinetobacter baumannii; settings: modified broth microdilution, cation-adjusted Mueller Hinton broth, inoculum 5 × 10^5 CFU/mL, 18 h, quadruplicate, highest concentration tested 512 μg/mL
Protocol: as §1

A. baumannii S27379 Sen = assay type: cell-based, Acinetobacter baumannii; settings: sensitive hospital isolate, modified broth microdilution, cation-adjusted Mueller Hinton broth, inoculum 5 × 10^5 CFU/mL, 18 h, quadruplicate, highest concentration tested 512 μg/mL
Protocol: as §1

A. baumannii IMI/MER-R = assay type: cell-based, Acinetobacter baumannii; settings: imipenem/meropenem resistant, modified broth microdilution, cation-adjusted Mueller Hinton broth, inoculum 5 × 10^5 CFU/mL, 18 h, quadruplicate, highest concentration tested 512 μg/mL
Protocol: as §1

P. aeruginosa H174 = assay type: cell-based, Pseudomonas aeruginosa; settings: modified broth microdilution, cation-adjusted Mueller Hinton broth, inoculum 5 × 10^5 CFU/mL, 18 h, quadruplicate, highest concentration tested 512 μg/mL
Protocol: as §1

P. aeruginosa PAO1 = assay type: cell-based, Pseudomonas aeruginosa; settings: modified broth microdilution, cation-adjusted Mueller Hinton broth, inoculum 5 × 10^5 CFU/mL, 18 h, quadruplicate, highest concentration tested 512 μg/mL
Protocol: as §1

[1] = tested on: A. baumannii S15785 OXA-23/0XA-50; assay type: cell-based, Acinetobacter baumannii; settings: modified broth microdilution, cation-adjusted Mueller Hinton broth, inoculum 5 × 10^5 CFU/mL, 18 h, quadruplicate, highest concentration tested 512 μg/mL
Protocol: as §1

E. coli K12 = assay type: cell-based, Escherichia coli; settings: modified broth microdilution, cation-adjusted Mueller Hinton broth, inoculum 5 × 10^5 CFU/mL, 18 h, quadruplicate, highest concentration tested 512 μg/mL
Protocol: as §1

SMILES | MIC (Sal. Tyhimurium (SL1344); Salmonella enterica, read-out: Minimum Inhibitory Concentration, Sal. Tyhimurium) | MIC (A. baumannii DSMZ 30007; Acinetobacter baumannii, DSMZ30007, read-out: Minimum Inhibitory Concentration, A. baumannii DSMZ 30007) | MIC (A. baumannii S27379 Sen; Acinetobacter baumannii, S27379SEN, read-out: Minimum Inhibitory Concentration, A. baumannii S27379 Sen) | MIC (A. baumannii IMI/MER-R; Acinetobacter baumannii, read-out: Minimum Inhibitory Concentration, A. baumannii IMI/MER-R) | MIC (P. aeruginosa H174; Pseudomonas aeruginosa, H174, read-out: Minimum Inhibitory Concentration, P. aeruginosa H174) | MIC (P. aeruginosa PAO1; Pseudomonas aeruginosa, PAO1, read-out: Minimum Inhibitory Concentration, P. aeruginosa PAO1) | MIC ([1]; Acinetobacter baumannii, read-out: Minimum Inhibitory Concentration, A. baumannii S15785 OXA-23/0XA-50) | MIC (E. coli K12; Escherichia coli, K12, read-out: Minimum Inhibitory Concentration, E. coli K12) | Minimum Inhibitory Concentration, Sal. Tyhimurium (Sal. Tyhimurium (SL1344)) | Minimum Inhibitory Concentration, A. baumannii DSMZ 30007 (A. baumannii DSMZ 30007) | Minimum Inhibitory Concentration, A. baumannii S27379 Sen (A. baumannii S27379 Sen) | Minimum Inhibitory Concentration, A. baumannii IMI/MER-R (A. baumannii IMI/MER-R) | Minimum Inhibitory Concentration, P. aeruginosa H174 (P. aeruginosa H174) | Minimum Inhibitory Concentration, P. aeruginosa PAO1 (P. aeruginosa PAO1) | Minimum Inhibitory Concentration, A. baumannii S15785 OXA-23/0XA-50 [1] | Minimum Inhibitory Concentration, E. coli K12 (E. coli K12)
C[C@H]1COc2c(N3CCN(C)CC3)c(F)cc3c(=O)c(C(=O)O)cn1c23 [Levofloxacin] | 0.12 µg/mL (≈ 0.332 µM) | 0.25 µg/mL (≈ 0.692 µM) | 0.12 µg/mL (≈ 0.332 µM) | 256 µg/mL (≈ 708 µM) | 0.5 µg/mL (≈ 1.38 µM) | 0.06 µg/mL (≈ 0.166 µM) | > 512 µg/mL | 0.03 µg/mL (≈ 0.083 µM) | – | – | – | – | – | – | – | –
CC[C@H](C)CCCCC(=O)N[C@@H](CCN)C(=O)N[C@H](C(=O)N[C@@H](CCN)C(=O)N[C@H]1CCNC(=O)[C@H]([C@@H](C)O)NC(=O)[C@H](CCN)NC(=O)[C@H](CCN)NC(=O)[C@H](CC(C)C)NC(=O)[C@@H](Cc2ccccc2)NC(=O)[C@H](CCN)NC1=O)[C@@H](C)O [Polymyxin B] (X1-[Dab]T[Dab][Dab][Dab][dF]L[Dab][Dab]T; lactam 4-C (inferred); N-terminus assumed) | – | – | – | – | – | – | – | – | 1 µg/mL | 1 µg/mL | 1 µg/mL | 1 µg/mL | 1 µg/mL | 2 µg/mL | 0.5 µg/mL | 0.5 µg/mL
